30 molecules from patent US9365541B2, “Compounds for use in the treatment of parasitic diseases” (IRBM—SCIENCE PARK S.P.A., priority 2012, dated 2016) can be followed below.

Test [1] relates to Plasmodium falciparum 3D7. Nature of the test: P. falciparum growth inhibition assay (Pf-LDH). The test is classed as cell-based. The note with it: Plasmodium falciparum, Erythrocyte; P. falciparum 3D7 infected erythrocytes, 72 h incubation, PfLDH readout. An outline of the steps: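 Compounds were tested against 72 h cultures of the 3D7 strain (0.25% parasitemia, 2% hematocrit, 37° C, low-oxygen gas). Parasite growth was quantified as lactate dehydrogenase activity via NBT reduction, absorbance 650 nm, after freezing and thawing.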

A further test has as its target T1, human HDAC1 (Homo sapiens, UniProt Q13547).
T1 construct: made in house; host or cells: HeLa (ATCC CCL-2), mammalian cells
Nature of the test: Homo sapiens HDAC1 inhibition assay (Fluor-de-Lys, enzymatic). It is filed as biochemical. The note with it: human HDAC enzymatic assay; read-out: hHDAC IC50. The method in brief: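 Fluorogenic deacetylation read-out: trypsin developer, supplemented with 2 μM final TSA as stop, releases fluorophore from deacetylated substrate.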

The structures appear in SMILES notation. A value given as a limit tells only on which side of the number the result lay.

T1 sequence (Q13547 whole entry): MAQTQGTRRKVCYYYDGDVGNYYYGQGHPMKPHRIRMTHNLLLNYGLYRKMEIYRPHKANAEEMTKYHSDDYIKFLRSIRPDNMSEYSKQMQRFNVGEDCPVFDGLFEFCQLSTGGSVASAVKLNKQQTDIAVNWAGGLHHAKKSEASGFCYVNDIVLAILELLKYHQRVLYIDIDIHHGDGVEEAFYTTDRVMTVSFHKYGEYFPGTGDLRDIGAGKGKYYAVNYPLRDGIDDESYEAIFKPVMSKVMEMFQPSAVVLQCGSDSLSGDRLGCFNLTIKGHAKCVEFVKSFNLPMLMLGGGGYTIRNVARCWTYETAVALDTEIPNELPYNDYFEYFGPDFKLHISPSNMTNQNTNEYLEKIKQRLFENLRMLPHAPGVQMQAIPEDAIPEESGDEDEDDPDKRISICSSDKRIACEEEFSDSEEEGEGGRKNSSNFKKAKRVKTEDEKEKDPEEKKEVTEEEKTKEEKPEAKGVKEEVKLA

Usually EC50 stands for the concentration at which the effect is half-maximal. A higher EC50 goes with weaker potency. The term IC50 denotes the concentration that gives 50% inhibition. On to `CNC(=O)CCCCC[C@H](NC(=O)C1CC(=O)Nc2ccccc21)c1ncc(-c2ccc(-n3cccn3)cc2)[nH]1` (stereo partly drawn) [Entry 61, N-((S)-1-(5-(4-(1H-pyrazol-1-yl)phenyl)-1H-imidazol-2-yl)-7-(methylamino)-7-oxoheptyl)-2-oxo-1,2,3,4-tetrahydroquinoline-4-carboxamide], for which the EC50 in test [1] is 1 to 5 µM. At human HDAC1, the IC50 lay in the range of 1 to 5 µM.

On to `CNC(=O)CCCCC[C@H](NC(=O)Cn1ccnn1)c1ncc(-c2ccc(-n3cccn3)cc2)[nH]1` [Entry 62, (S)-7-(2-(1H-1,2,3-triazol-1-yl)acetamido)-7-(5-(4-(1H-pyrazol-1-yl)phenyl)-1H-imidazol-2-yl)-N-methylheptanamide], for which, in test [1], the EC50 is more than 5 µM. The IC50 at human HDAC1 is more than 5 µM.

In test [1], `CNC(=O)CCCCC[C@H](NC(=O)Cc1nc(-c2ccccc2)cs1)c1ncc(-c2ccc3ccccc3c2)[nH]1` [Entry 63] yielded a 50% effective concentration (EC50) of 1 to 5 µM. Moreover, on human HDAC1, the IC50 fell in the range of 1 to 5 µM.

Consider `CNC(=O)CCCCC[C@H](NC(=O)c1cccc(N2CCOCC2)c1)c1ncc(-c2ccc3ccccc3c2)[nH]1` [Entry 64, (S)-N-(7-(methylamino)-1-(5-(naphthalen-2-yl)-1H-imidazol-2-yl)-7-oxoheptyl)-3-morpholino-benzamide], for which the EC50 in test [1] was 1 to 5 µM. Moreover, the concentration for half-maximal inhibition (IC50) on human HDAC1 is more than 5 µM.

In test [1], `CNC(=O)CCCCC[C@H](NC(=O)c1cnc(CN2CCCC2)s1)c1ncc(-c2ccc3ccncc3c2)[nH]1` [Entry 65, (S)-N-(1-(5-(isoquinolin-7-yl)-1H-imidazol-2-yl)-7-(methylamino)-7-oxoheptyl)-2-(pyrrolidin-1-ylmethyl)thiazole-5-carboxamide] showed an EC50 of less than 1 µM. Moreover, the 50% inhibitory concentration (IC50) at human HDAC1 was less than 1 µM.

On to `CNC(=O)CCCCC[C@H](NC(=O)CN1CCCC1)c1ncc(-c2ccc3ccncc3c2)[nH]1` [Entry 66], for which, in test [1], the EC50 was more than 5 µM. Also, the IC50 at human HDAC1 lay within 1 to 5 µM.

For the molecule `CNC(=O)CCCCC[C@H](NC(=O)c1ccns1)c1ncc(-c2ccc3ccncc3c2)[nH]1` [Entry 67], the EC50 in test [1] is less than 1 µM. Also, the IC50 at human HDAC1 is less than 1 µM.

Take `CNC(=O)CCCCC[C@H](NC(=O)Cc1nc(C)cs1)c1ncc(-c2ccc3ccncc3c2)[nH]1` [Entry 68]: the EC50 in test [1] was more than 5 µM. At human HDAC1, the IC50 was in the range of 1 to 5 µM.

In turn, `CNC(=O)CCCCC[C@H](NC(=O)Cn1ccnn1)c1ncc(-c2ccc(-c3ccn(C)n3)cc2)[nH]1` [Entry 69, (S)-7-(2-(1H-1,2,3-triazol-1-yl)acetamido)-N-methyl-7-(5-(4-(1-methyl-1H-pyrazol-3-yl)phenyl)-1H-imidazol-2-yl)heptanamide] gave an EC50 in test [1] of more than 5 µM. The IC50 on human HDAC1 was more than 5 µM.

`COc1ccc2[nH]c(C)c(CC(=O)N[C@@H](CCCCCC(N)=O)c3nnc(-c4ccc5ccccc5c4)[nH]3)c2c1` [Entry 70, (S)-7-(2-(5-methoxy-2-methyl-1H-indol-3-yl)acetamido)-7-(5-(naphthalen-2-yl)-4H-1,2,4-triazol-3-yl)heptanamide] displayed an EC50 in test [1] of less than 1 µM. For the same molecule, on human HDAC1, the IC50 was less than 1 µM.

Consider `CNC(=O)CCCCC[C@H](NC(=O)C1CN(C)C1)c1ncc(-c2cc3ccccc3nc2OC)o1` [Entry 71, (S)-N-(1-(5-(2-methoxyquinolin-3-yl)oxazol-2-yl)-7-(methylamino)-7-oxoheptyl)-1-methylazetidine-3-carboxamide], for which the EC50 in test [1] was less than 1 µM. The IC50 at human HDAC1 is less than 1 µM.

`CNC(=O)CCCCC[C@H](NC(=O)OCc1ccccc1)c1ncc(-c2ccc3ccccc3c2)[nH]1` [Entry 72, (S)-benzyl (7-(methylamino)-1-(5-(naphthalen-2-yl)-1H-imidazol-2-yl)-7-oxo-heptyl)carbamate] had an EC50 in test [1] of 1 to 5 µM. Besides, the IC50 at human HDAC1 is less than 1 µM.

The molecule `CNC(=O)CCCCC[C@H](NC(=O)c1cc2cc(OC)ccc2[nH]1)c1ncc(-c2ccc3ccccc3c2)[nH]1` [Entry 73, (S)-5-methoxy-N-(7-(methylamino)-1-(5-(naphthalen-2-yl)-1H-imidazol-2-yl)-7-oxoheptyl)-1H-indole-2-carboxamide] returned an EC50 in test [1] of 1 to 5 µM. Besides, the IC50 at human HDAC1 lay within 1 to 5 µM.

Regarding `CNC(=O)CCCCC[C@H](NC(=O)Cn1c(=O)oc2ccccc21)c1ncc(-c2ccc3ccccc3c2)[nH]1` [Entry 74], the EC50 in test [1] lay in the range of 1 to 5 µM. Further, the IC50 on human HDAC1 was less than 1 µM.

In test [1], `CNC(=O)CCCCC[C@H](NC(=O)Cc1c(C)[nH]c2ccc(OC)cc12)c1ncc(-c2ccc3ccccc3c2)[nH]1` [Entry 75, (S)-7-(2-(5-methoxy-2-methyl-1H-indol-3-yl)acetamido)-N-methyl-7-(5-(naphthalen-2-yl)-1H-imidazol-2-yl)heptanamide] showed an EC50 of less than 1 µM. The IC50 on human HDAC1 was less than 1 µM.

Consider `CNC(=O)CCCCC[C@H](NC(=O)Cc1cnccn1)c1ncc(-c2cc3ccccc3nc2OC)[nH]1` [Entry 76], for which, in test [1], the 50% effective concentration (EC50) lay in the range of 1 to 5 µM. Besides, the IC50 on human HDAC1 is 1 to 5 µM.

`CNC(=O)CCCCC[C@H](NC(=O)c1nnc(C)o1)c1ncc(-c2cc3ccccc3nc2OC)[nH]1` [Entry 77, (S)-N-(1-(5-(2-methoxyquinolin-3-yl)-1H-imidazol-2-yl)-7-(methylamino)-7-oxoheptyl)-5-methyl-1,3,4-oxadiazole-2-carboxamide] had an EC50 in test [1] of 1 to 5 µM. For the same molecule, the IC50 on human HDAC1 lay in the range of 1 to 5 µM.

Molecule `CNC(=O)CCCCC[C@H](NC(=O)c1cncs1)c1ncc(-c2ccc(CN(C)C)cc2)[nH]1` [Entry 78, (S)-N-(1-(5-(4-((dimethyl-amino)methyl)phenyl)-1H-imidazol-2-yl)-7-(methylamino)-7-oxoheptyl)thiazole-5-carboxamide] registered an EC50 in test [1] of more than 5 µM. Further, the IC50 at human HDAC1 lay within 1 to 5 µM.

The molecule `CNC(=O)CCCCC[C@H](NC(=O)c1cncs1)c1ncc(-c2cccc3c2OCCO3)[nH]1` [Entry 79] registered an EC50 in test [1] of more than 5 µM. Also, the 50% inhibitory concentration (IC50) on human HDAC1 was in the range of 1 to 5 µM.

Consider `CNC(=O)CCCCC[C@H](NC(=O)c1cncs1)c1ncc(-c2cc3ccccc3nc2Cl)[nH]1` [Entry 80, (S)-N-(1-(5-(2-chloroquinolin-3-yl)-1H-imidazol-2-yl)-7-(methylamino)-7-oxoheptyl)thiazole-5-carboxamide], for which the EC50 in test [1] lay within 1 to 5 µM. The IC50 on human HDAC1 is 1 to 5 µM.

Regarding `CNC(=O)CCCCC[C@H](NC(=O)c1cncs1)c1ncc(-c2ccc(-n3nc(C)cc3C)cc2)[nH]1` [Entry 81, (S)-N-(1-(5-(4-(3,5-dimethyl-1H-pyrazol-1-yl)phenyl)-1H-imidazol-2-yl)-7-(methylamino)-7-oxoheptyl)thiazole-5-carboxamide], the EC50 in test [1] is more than 5 µM. The IC50 at human HDAC1 was more than 5 µM.

For the molecule `CNC(=O)CCCCC[C@H](NC(=O)c1cc(C)n(-c2ccccc2)n1)c1ncc(-c2ccc3ccccc3c2)[nH]1` [Entry 82, (S)-5-methyl-N-(7-(methylamino)-1-(5-(naphthalen-2-yl)-1H-imidazol-2-yl)-7-oxoheptyl)-1-phenyl-1H-pyrazole-3-carboxamide], the EC50 in test [1] was more than 5 µM. For the same molecule, at human HDAC1, the IC50 was more than 5 µM.

In the case of `CNC(=O)CCCCC[C@H](NC(=O)c1ccc(-n2cccc2)nc1)c1ncc(-c2ccc3ccccc3c2)[nH]1` [Entry 83, (S)-N-(7-(methylamino)-1-(5-(naphthalen-2-yl)-1H-imidazol-2-yl)-7-oxoheptyl)-6-(1H-pyrrol-1-yl)nicotinamide], the half-maximal effective concentration (EC50) in test [1] is 1 to 5 µM. The IC50 at human HDAC1 lay within 1 to 5 µM.

`CNC(=O)CCCCC[C@H](NC(=O)c1nnc(C)s1)c1ncc(-c2ccc3ccccc3c2)[nH]1` [Entry 84, (S)-5-methyl-N-(7-(methylamino)-1-(5-(naphthalen-2-yl)-1H-imidazol-2-yl)-7-oxoheptyl)-1,3,4-thiadiazole-2-carboxamide] came in with an EC50 in test [1] of more than 5 µM. Moreover, at human HDAC1, the IC50 is 1 to 5 µM.

As to `CNC(=O)CCCCC[C@H](NC(=O)C(C)n1cccn1)c1ncc(-c2ccc3ccccc3c2)[nH]1` (stereo partly drawn) [Entry 85, (7S)-7-(2-(1H-pyrazol-1-yl)propanamido)-N-methyl-7-(5-(naphthalen-2-yl)-1H-imidazol-2-yl)heptanamide], in test [1], the EC50 lay in the range of 1 to 5 µM. Besides, the IC50 on human HDAC1 fell in the range of 1 to 5 µM.

Turning to `CNC(=O)CCCCC[C@H](NC(=O)c1cc(-c2ccco2)n[nH]1)c1ncc(-c2ccc3ccccc3c2)[nH]1` [Entry 86, (S)-3-(furan-2-yl)-N-(7-(methylamino)-1-(5-(naphthalen-2-yl)-1H-imidazol-2-yl)-7-oxoheptyl)-1H-pyrazole-5-carboxamide], in test [1], the EC50 lay in the range of 1 to 5 µM. For the same molecule, the IC50 at human HDAC1 was 1 to 5 µM.

In the case of `CNC(=O)CCCCC[C@H](NC(=O)c1ccccc1-n1cnnn1)c1ncc(-c2ccc3ccccc3c2)[nH]1` [Entry 87, (S)-N-(7-(methylamino)-1-(5-(naphthalen-2-yl)-1H-imidazol-2-yl)-7-oxoheptyl)-2-(1H-tetrazol-1-yl)benzamide], in test [1], the EC50 is 1 to 5 µM. On human HDAC1, the IC50 is 1 to 5 µM.

In turn, `CNC(=O)CCCCC[C@H](NC(=O)c1cccc2nccnc12)c1ncc(-c2ccc3ccccc3c2)[nH]1` [Entry 88, (S)-N-(7-(methylamino)-1-(5-(naphthalen-2-yl)-1H-imidazol-2-yl)-7-oxo-heptyl)quinoxaline-5-carboxamide] displayed a concentration giving a half-maximal response (EC50) in test [1] of more than 5 µM. In addition, the IC50 at human HDAC1 is more than 5 µM.

As for `CNC(=O)CCCCC[C@H](NC(=O)Cn1cncn1)c1ncc(-c2ccc3ccncc3c2)[nH]1` [Entry 89, (S)-7-(2-(1H-1,2,4-triazol-1-yl)acetamido)-7-(5-(isoquinolin-7-yl)-1H-imidazol-2-yl)-N-methylheptanamide], the EC50 in test [1] lay within 1 to 5 µM. Also, the IC50 on human HDAC1 lay within 1 to 5 µM.

Regarding `CNC(=O)CCCCC[C@H](NC(=O)c1cnn(C(C)C)c1)c1ncc(-c2ccc3ccncc3c2)[nH]1` [Entry 90, (S)-1-isopropyl-N-(1-(5-(isoquinolin-7-yl)-1H-imidazol-2-yl)-7-(methylamino)-7-oxoheptyl)-1H-pyrazole-4-carboxamide], the EC50 in test [1] is less than 1 µM. For the same molecule, the IC50 on human HDAC1 is less than 1 µM.
